Data: a compilation of properties of binary mixtures (doi:10.1007/s10953-020-00968-2)

Assay: xn = mol fraction of the nth substance listed
Settings: 101 kPa

O + CS(=O)(=O)[O-].C[N+](C)(CCO)CCO
x2 = 0
Settings | viscosity [mPa·s]
298.15 K | 0.877
303.15 K | 0.789
313.15 K | 0.654

CS(=O)(=O)[O-].C[N+](C)(CCO)CCO + O
viscosity [mPa·s]
Settings | x1 = 0.0989 | x1 = 0.1991 | x1 = 0.2989 | x1 = 0.3971 | x1 = 0.4797 | x1 = 0.5983 | x1 = 0.6984 | x1 = 0.7942 | x1 = 0.8928 | x1 = 1
298.15 K | 4.55 | – | 36.9 | 77.5 | 148 | 288 | 460 | 796 | 1034 | 1495
303.15 K | 3.91 | 12.42 | – | 60.6 | 113 | 212 | – | 558 | 718 | 1021
308.15 K | 3.45 | 10.56 | 24.6 | 48.3 | 78.7 | 160 | 246 | 403 | 510 | 716
313.15 K | 3.06 | 9.06 | 20.5 | 39 | – | 123.5 | – | 296 | 374 | 513
318.15 K | 2.74 | 7.85 | – | 32.1 | – | 86.9 | 142.8 | 223 | 279 | –
323.15 K | 2.51 | – | 14.75 | 26.7 | – | 69.4 | – | 171 | 212 | –
